The subject of series [1] is American cockroach. The series can be described thus: Cross walk jar test on pre-treated surface. The class given is in vivo. The conditions noted are these: for pesticidal activity against cockroaches, in words: in vivo. As for the experimental part:
In the test, a known amount of the test material was dissolved in a known volume of acetone and applied to small jars and all inner bottom surfaces were covered. The bottom surface of each jar is approximately 250 cm^2. One hour after the acetone had completely evaporated, five American cockroaches were introduced to each jar. Control jars were treated exactly as above but with the known amount of acetone only.
The results of the “cross walk” jar tests are in Table 8 in which the “4-blend” was dispersed as an aerosol and a dust in the jar.
In this test, the acetone solution of the test material was placed in the jar and the roach inserted into the jar after the acetone had evaporated.
Mortality was measured 24 hours after exposure.
The “4-blend” and the individual constituents of the “4-blend” were tested using 10 cockroaches for each “cross walk” treatment. In addition, pyrethrins were tested separately and mixed with the various components.
A concentration of 100 mg/jar was used for each individual alone. In the co-treatment experiment without pyrethrins, 20 mg/jar for each chemical was used. In the cotreatment experiment with pyrethrins, 20 mg/jar for the naturally occurring plant material was used. Pyrethrins was used at 2 mg/jar. […] It was noted above that the mortality is dependent upon concentration. […] Some synergism is found between pyrethrins and either α-terpineol or benzyl alcohol.

Series [2] deals with 2nd instar green peach aphid nymphs. The series is described as follows: Cabbage leaf disc bioassay. To be noted: for activity on green peach aphid nymphs, in words: 1:200 dilution; for Percentage of aphids Walking (off disc) / Percentage of aphids Dead / Percentage of aphids Feeding: n = 250. The class given is in vivo. As for the experimental part:
A bioassay similar to that for S. litura larvae was used for additional larvae. Cabbage leaf discs were dipped in emulsified aqueous solutions, diluted 1:200 in water, on which 2nd instar green peach aphid nymphs were placed. For each treatment there was 10 aphids per disc with 5 replicates; each experiment was replicated in time (successive days) from 3-5 times. After 24 hours, aphids were reported as being (1) on the leaf disc and feeding; (2) alive, but walking off the disc; or (3) dead. In the field, aphids which cease feeding and abandon a host plant are very unlikely to survive.

Series [3] has as its system heart of American cockroach (octopamine receptors). The series is described as follows: Heartbeat after application to thoracic segment. The class given is in vivo. The conditions noted are these: mean ±SD of three roaches; for Heart beat/30 sec 30 min after treatment: 300 μg applied to thoracic segment; for Heart beat/30 sec before treatment: baseline of the same roaches. As for the experimental part:
To further establish the effect of the purified naturally occurring plant essential oils and/or their constituents on the American cockroach, a 300 μg amount of the chemical was applied to the thoracic segment of an intact and alive American cockroach. The heart beats/30 seconds was measured. The heart of the cockroach is known to have a high concentration of octopamine receptors and the heart beat is considered an important measurement to indicate the effect of the applied chemicals to the octopamine receptors.

In a further series the test system is larvae. The series is described as follows: Feeding deterrence of carvacrol. The class given is in vivo. To be noted: on doubling the concentration. The source says: FIG. 6 is a graph of the feeding deterrence of carvacrol vs. larvae.
The 5-blend can be considered as a relatively broad spectrum pesticide. […] The effect of concentration of the pesticide is shown in […] where a doubling in the concentration of carvacrol produces a 3-4 fold increase in deterrence of feeding.

Series [4] deals with octopamine receptor sites. The series can be described thus: 3H-OA binding to ventral nerve cord / synaptosomal membrane protein. Further details: species or system American cockroach (Periplaneta americana). To be noted: for classification with respect to octopamine receptor sites (OAR): based on the binding data of Tables 1-3; for cpm 3H-OA/500 μg protein: Table 3. As for the experimental part:
Different concentrations of unlabeled octopamine (OA) (20, 30, 40, 50, 60, 100 ng) were tested on the binding activity as a positive control. Test chemicals were dissolved in acetone before the assay. Different concentrations of the test chemicals were added directly to the protein preparation from ventral nerve cord. The same amount of solvent (1 μl 0.1%) were added to the control samples. All assays with test chemicals were run in the presence and absence of 50 ng OA. All chemicals were added to the protein extract 20 min prior the addition of radio labeled ^3H-OA(100,000 cpm/sample). After 30 min at 24° C. of the addition of ^3H-OA, the reaction was stopped by the addition of ice-cold Tris buffer, and the samples were filtered through GF/C membrane using water vacuum. After two washes each with 5 ml Tris buffer, the membrane was removed, air dried and the radioactivity was counted in 4 ml liquid scintillation solution. The specific binding was calculated as the difference between the values in the presence and absence of unlabeled OA. All data are calculated as the mean±standard deviation of 5 assays.
Additional tests were conducted on radio labeled octopamine using other purified naturally occurring materials as given in Tables 2 and 3.

The test system of series [5] is 3rd instar Asian armyworms (Spodoptera litura). To be noted: for Mortality (%): control 0. As for the experimental part: Additional synergistic testing was conducted on 3rd instar Asian armyworms (Spodoptera litura). […] The number of replicates is given as “n”.
Series [6] has as its system American cockroach. The series can be described thus: Lethal effect of injected test chemicals. The class given is in vivo. The conditions noted are these: dead/10. As for the experimental part:
Further studies were conducted to determine the LD 50 of purified naturally occurring plant essential oils and/or their constituents. […] Ten roaches per dose were used. Another group of ten roaches received the same volume of vehicle only (0.5 μl) and used as a control group. Mortality was recorded 24, 48, and 72 hours after exposure.

Where [7] appears, read: 500 ng/ml, solvent control 1385 ± 101.

The results in this text go back to patent US6841577B2, “Pesticidal activity of plant essential oils and their constituents” (Ecosmart Technologies, Inc., priority 1999, dated 2005).

Like-named read-outs stand apart in the source and are kept apart here.

The mortality is the percentage killed. As to `OCc1ccccc1` [Benzyl Alcohol], the mortality at 100 mg in the series on American cockroach [1] (Periplaneta americana, 24 h) came to 0%; with American cockroach [1] (Periplaneta americana, 48 h), 20%; with American cockroach [1] (Periplaneta americana, 72 h), 40%. Further, in the series with American cockroach [1] (Periplaneta americana, inhaled or nasal), the mortality at 10 mg was determined as 100%. In addition, the “activity on green peach aphid nymphs, in words” value in series [2] is “relatively inactive”. Further, in series [2] (diluted 1:200 in water, after 24 hours, Table 16, control 23.4), the “Percentage of aphids Walking (off disc)” value was determined as 22.3%. Moreover, the “Percentage of aphids Dead” value in series [2] (diluted 1:200 in water, after 24 hours, Table 16, control 24.8) was 32.8%. Moreover, in series [2] (diluted 1:200 in water, after 24 hours, Table 16, control 51.7), the “Percentage of aphids Feeding” value is 44.5%. For the same molecule, the “Heart beat/30 sec 30 min after treatment” value in series [3] was determined as 39 ± 2 beat/30 sec. Further, the “Heart beat/30 sec before treatment” value in series [3] is reported as 45 ± 3 beat/30 sec.
On to `Cc1ccc(C(C)C)cc1O` [Carvacol, Carvacrol], for which, in the series on American cockroach [1] (Periplaneta americana, 24 h), the mortality at 10 mg came out at 0%, the mortality at 20 mg was 20%, the mortality at 40 mg came to 50% and the mortality at 50 mg worked out at 80%. For the same molecule, the mortality at 100 mg with American cockroach [1] (Periplaneta americana, 24 h) was 100%. For the same molecule, the “pesticidal activity against cockroaches, in words” value in the series with American cockroach [1] was “high pesticidal activity”. In the series on larvae, the “increase in deterrence of feeding” value is listed as 3-4 fold. For the same molecule, the “agonist/antagonist note to 3H-OA binding” value in series [4] (1000 ng/ml) is recorded as “agonist”. The “dpm 3H-OA/500 μg protein” value in series [4] (1000 ng/ml, Table 2, solvent control 930 ± 89) is listed as 2366 ± 149 dpm 3H-OA/500 μg protein. For the same molecule, the “classification with respect to octopamine receptor sites (OAR)” value (“classification” below) in series [4] is “OAR Agonists”.
For the molecule `CCC(=O)OCCc1ccccc1` [Phenethyl propionate], in the series with American cockroach [1] (Periplaneta americana, 24 h), the mortality at 10 mg is 30%, the mortality at 20 mg was 40%, the mortality at 30 mg was found to be 60% and the mortality at 40 mg was 90%. In addition, in the series with American cockroach [1] (Periplaneta americana, 24 h), the mortality at 50 mg was found to be 100% and the mortality at 100 mg was 100%. Also, the “pesticidal activity against cockroaches, in words” value with American cockroach [1] is listed as “high pesticidal activity”. Moreover, the “activity on green peach aphid nymphs, in words” value in series [2] is “essentially inactive”. Also, in series [2] (Table 17, control 8.7), the “Percentage of aphids Dead” value was 13.3%. In addition, the “Percentage of aphids Walking (off disc)” value in series [2] (Table 17, control 15.3) is 25.3%. Moreover, in series [2] (Table 17, control 76.0), the “Percentage of aphids Feeding” value is given as 62.0%. In series [4], the “activity/binding at octopamine receptor sites, in words” value is “antagonists which are most strongly bound” and the “classification” value is “extremely high OAR antagonists”. In series [4] (500 ng/ml), the “agonist/antagonist note to 3H-OA binding” value was “antagonist”. In addition, the “cpm 3H-OA/500 μg protein” value in series [4] (setting [7]) is 0173 ± 022 cpm 3H-OA/500 μg protein. Also, the “activity on Asian armyworms, in words” value in series [5] (in vivo) is recorded as “relatively low activity”.
With `Cc1ccc(C(C)C)c(O)c1` [Thymol], the mortality at 40 mg with American cockroach [1] (Periplaneta americana, 24 h) is 80%. In addition, in the series with American cockroach [1] (Periplaneta americana, 24 h), the mortality at 100 mg stood at 100%. Further, the “cpm 3H-OA/500 μg protein” value in series [4] (setting [7]) was found to be 1310 ± 91 cpm 3H-OA/500 μg protein; in series [4] (1000 ng/ml, solvent control 1915 ± 110), 806 ± 71 cpm 3H-OA/500 μg protein. For the same molecule, in series [4], the “classification” value is listed as “Non-OAR Specific Toxicants”. Further, the “Mortality (%)” value in series [5] (diluted 1:400 with water, n = 50, Table 12) is given as 98%; in series [5] (dilution rate 1:500, n = 150, Table 14 right), 24.5%; in series [5] (n = 50, Table 13 right, 1:500 printed for Thymol only), 29%.
Take `OCCc1ccccc1` [phenethyl alcohol]: the mortality at 100 mg was determined as 0% with American cockroach [1] (Periplaneta americana, 24 h); 0% with American cockroach [1] (Periplaneta americana, 48 h); 0% in the series with American cockroach [1] (Periplaneta americana, 72 h). For the same molecule, the Mortality is 0/10 in the series with American cockroach [6] (500 μg/roach injected into thoracic and abdominal segments, 24 hr.); 0/10 with American cockroach [6] (500 μg/roach injected, 48 hr.); 0/10 in the series on American cockroach [6] (500 μg/roach injected, 72 hr., control 1/10). Also, in series [3], the “Heart beat/30 sec 30 min after treatment” value is reported as 29 ± 2 beat/30 sec. Also, in series [3], the “Heart beat/30 sec before treatment” value is 47 ± 2 beat/30 sec.
